Some test systems named below: 786-0 renal; A498 renal; CAKI-1 renal; K-562 leukemia; MCF7 breast; NCI-H460 lung; NCI-H522 lung; OVCAR-5 ovarian; PC-3 prostate; SF-268 CNS; SF-295 CNS; SF-539 CNS; SK-MEL-28 melanoma; SNB-19 CNS; SR leukemia; T-47D breast; UACC-62 melanoma; UO-31 renal; CCRF-CEM leukemia; NCI-H226 lung.
Common to all, as to assay: inhibition of tumour cell growth, NCI panel, 48 h

We go through seven compounds from PubChem BioAssay (NCI).

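Where inhibition never reached the appropriate level, the endpoint shown equals the highest concentration tested. Otherwise, values were interpolated linearly from a five-concentration, 48-hour dose response in 96-well plates. The concentration for full growth arrest is given as TGI.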 Where a SMILES comes first, the peptide text is derived from it. Bridges are numbered along the chain shown (N, C = ends). [ ]: non-standard residue; d: D form. The star is where a group is joined. Cbz = O=C(OCc1ccccc1)*; Aib = CC(C)(N)C(=O)O; OBn = c1ccc(CO*)cc1; βAla = NCCC(=O)O

Turning to `COc1ccccc1N1C(=O)/C(=C\c2cccc(Oc3ccccc3)c2)SC1c1ccccc1` (stereo unspecified), the TGI in the test on 786-0 renal, with A498 renal, in the test with CAKI-1 renal, in the test with K-562 leukemia, with MCF7 breast and in the test on NCI-H460 lung was greater than 100 µM throughout. For the same compound, the TGI with NCI-H522 lung, in the test on OVCAR-5 ovarian, in the test with PC-3 prostate, with SF-268 CNS, in the test on SF-295 CNS and with SF-539 CNS was greater than 100 µM throughout. Moreover, the TGI in the test with SK-MEL-28 melanoma, in the test with SNB-19 CNS, with SR leukemia, in the test on T-47D breast, in the test with UACC-62 melanoma and in the test on UO-31 renal was greater than 100 µM in each case.

With `Cc1[nH]c(=O)[nH]c(=S)c1C(=O)NC(C)(CO)CO`, the TGI with 786-0 renal, in the test with A498 renal, in the test on CAKI-1 renal, in the test with CCRF-CEM leukemia, in the test on K-562 leukemia and with MCF7 breast was greater than 100 µM in each case. Moreover, the TGI in the test with NCI-H226 lung, in the test with NCI-H460 lung, with NCI-H522 lung, in the test on OVCAR-5 ovarian, with PC-3 prostate and in the test on SF-268 CNS was greater than 100 µM each time. In addition, the TGI in the test with SF-295 CNS, in the test with SF-539 CNS, in the test with SK-MEL-28 melanoma, in the test with SNB-19 CNS, in the test on T-47D breast and with UACC-62 melanoma was greater than 100 µM in each case. Further, the TGI in the test on UO-31 renal is greater than 100 µM.

For the compound `Cc1c(Cc2ccccc2)n(COCCCO)c(=O)[nH]c1=O`, the TGI in the test with 786-0 renal, in the test on A498 renal, with CAKI-1 renal, in the test on CCRF-CEM leukemia, in the test with K-562 leukemia and with MCF7 breast was greater than 100 µM each time. Further, the TGI with NCI-H226 lung, with NCI-H460 lung, with NCI-H522 lung, in the test on OVCAR-5 ovarian, in the test on PC-3 prostate and with SF-268 CNS was greater than 100 µM throughout. The TGI with SF-295 CNS, in the test on SF-539 CNS, in the test with SK-MEL-28 melanoma, in the test with SNB-19 CNS, with T-47D breast and in the test with UACC-62 melanoma was greater than 100 µM each time. In addition, the TGI in the test with UO-31 renal was greater than 100 µM.

As to `NCCc1nc(-c2nc(C(=O)O)cs2)cs1`, the TGI in the test on 786-0 renal, in the test with A498 renal, in the test on CAKI-1 renal, in the test on CCRF-CEM leukemia, in the test with K-562 leukemia and in the test on MCF7 breast was greater than 100 µM each time. Further, the TGI with NCI-H460 lung, in the test on NCI-H522 lung, in the test with OVCAR-5 ovarian, with PC-3 prostate, with SF-268 CNS and in the test with SF-295 CNS was greater than 100 µM throughout. For the same compound, the TGI with SF-539 CNS, in the test on SK-MEL-28 melanoma, with SNB-19 CNS, in the test on SR leukemia, in the test with T-47D breast and in the test on UACC-62 melanoma was greater than 100 µM each time. For the same compound, in the test with UO-31 renal, the TGI was greater than 100 µM.

In the case of `CC1(C)NC(=O)C(NC(=O)C(CC(=O)OCc2ccccc2)NC(=O)OCc2ccccc2)CCCCNC(=O)CCNC1=O` (stereo unspecified) (Cbz-D(OBn)K[Aib][βAla]; lactam 2-C; configuration not given here), the TGI in the test on 786-0 renal, with A498 renal, with CAKI-1 renal, in the test on K-562 leukemia, in the test with MCF7 breast and with NCI-H226 lung was greater than 100 µM throughout. Further, the TGI in the test on NCI-H460 lung, with NCI-H522 lung, with OVCAR-5 ovarian, in the test on PC-3 prostate, in the test on SF-268 CNS and in the test on SF-295 CNS was greater than 100 µM in each case. Also, the TGI in the test with SF-539 CNS, in the test with SK-MEL-28 melanoma, with SNB-19 CNS, with T-47D breast, with UACC-62 melanoma and with UO-31 renal was greater than 100 µM each time.

As for `CC(=O)NNc1nc(C)c(C(/C=C/c2cccc([N+](=O)[O-])c2)=N/NC(=S)NN)s1`, the TGI in the test on 786-0 renal, in the test with A498 renal, in the test with CAKI-1 renal, in the test with CCRF-CEM leukemia, with K-562 leukemia and in the test with MCF7 breast was greater than 100 µM in each case. Further, the TGI with NCI-H226 lung, in the test on NCI-H460 lung, in the test with NCI-H522 lung, with OVCAR-5 ovarian, in the test on PC-3 prostate and in the test with SF-268 CNS was greater than 100 µM throughout. Also, the TGI in the test with SF-295 CNS, in the test with SF-539 CNS, in the test with SK-MEL-28 melanoma, with SNB-19 CNS, with T-47D breast and in the test with UACC-62 melanoma was greater than 100 µM throughout. Besides, in the test with UO-31 renal, the TGI was greater than 100 µM.

Regarding `CSc1nc(Cl)c2c(n1)Sc1nc3cc4c(cc3n1C2O)OCO4` (stereo unspecified), the TGI with 786-0 renal was greater than 39 µM; with A498 renal, 40.4 µM; with CAKI-1 renal, greater than 100 µM; with CCRF-CEM leukemia, greater than 100 µM; in the test with K-562 leukemia, greater than 100 µM; in the test on MCF7 breast, greater than 100 µM. For the same compound, the TGI is 6.09 µM in the test with NCI-H226 lung; greater than 32 µM in the test with NCI-H460 lung; 0.639 µM in the test with NCI-H522 lung; greater than 100 µM in the test on OVCAR-5 ovarian; greater than 60.3 µM with PC-3 prostate; greater than 100 µM in the test with SF-268 CNS. Further, the TGI is greater than 83.2 µM in the test on SF-295 CNS; 0.327 µM in the test with SF-539 CNS; greater than 100 µM in the test with SK-MEL-28 melanoma; greater than 100 µM in the test on SNB-19 CNS; greater than 100 µM in the test with T-47D breast; 14.2 µM in the test with UACC-62 melanoma. The compound also had a TGI in the test with UO-31 renal greater than 57.8 µM.
